Read-outs that look alike come from different tables or passages of the source.
Legend:
[1] = Pharmacokinetics following intravenous (IV) dosing; assay type: in vivo, Sprague-Dawley rats; parameters: Cmax: unit: ng/mL; conditions: for Vd: read-out: Vss
Text: (§1) There were 3 rats/group. All animals were food fasted overnight. […] The predose sample was collected from the JVC.
(§2) Following the last collection point, the animals were euthanized.

[2] = Pharmacokinetics following oral (PO) dosing; assay type: in vivo, Sprague-Dawley rats; parameters: Cmax: unit: ng/mL
Text: as §1, §2

human mu opioid receptor [3] = molecular target: T1, human mu opioid receptor (Homo sapiens, UniProt P35372); assay: cell-based; conditions: for Emax: read-out: % max effect, mu opioid receptor
T1 construct: expressed in transfected cells; host or cells: CHO cells
T1 sequence (P35372 whole entry): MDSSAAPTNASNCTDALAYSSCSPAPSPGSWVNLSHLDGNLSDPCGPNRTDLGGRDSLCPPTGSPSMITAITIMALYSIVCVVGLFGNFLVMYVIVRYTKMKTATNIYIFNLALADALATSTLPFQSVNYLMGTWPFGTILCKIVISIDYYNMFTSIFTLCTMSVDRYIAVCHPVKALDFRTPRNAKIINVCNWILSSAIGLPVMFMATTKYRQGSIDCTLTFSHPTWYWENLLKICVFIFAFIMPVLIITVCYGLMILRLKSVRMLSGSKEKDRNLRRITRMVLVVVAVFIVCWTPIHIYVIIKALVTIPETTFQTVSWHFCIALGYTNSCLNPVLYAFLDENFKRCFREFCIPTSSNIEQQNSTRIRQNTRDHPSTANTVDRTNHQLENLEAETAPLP
Experimental: Studies were conducted in CHO cells heterologously expressing the cloned human mu, kappa or delta opioid receptors. cAMP was measured using a cAMP HiRange homogenous time-resolved fluorescence assay (HTRF Assay), that is based on a competitive immunoassay principle (Cisbio, Cat.#62AM6PEC).
Briefly, suspensions of cells expressing either the mu, kappa or delta opioid receptors were prepared in buffer containing 0.5 mM isobutyl-methyl xanthine (IBMX). […] EC50 values were calculated for each compound from a sigmoidal dose-response plot of concentrations versus maximum response. To determine if the compounds behaved as full or partial agonists in the system, the maximal response at the highest tested concentrations of compounds were compared to that produced by a known full agonist.

human mu opioid receptor [4] = molecular target: T1, human mu opioid receptor; assay: biochemical; assay type: binding
Experimental: Radioligand displacement was measured using scintillation proximity assays (SPA).
Briefly, serial dilutions of the test compounds were placed in a 96-well plate to which were added SPA beads, membrane and radioligand. The assay conditions for each opioid receptor subtype are described in Table 10 below. The plates were incubated for 8 hours-overnight at room temperature, spun at 1000 rpm to pellet the SPA beads, and radioactivity was measured using the TopCount® microplate Scintillation counter. Specific binding at each concentration of test compound was calculated by subtracting the non-specific binding measured in the presence of excess cold ligand. IC50 values were obtained by non-linear regression of specific binding versus concentration curves and Ki values were calculated using Kd values that were experimentally pre-determined for each lot of membrane preparations.

squirrel monkeys = assay: Monkey self-administration model of addictive potential
Text: Dose-related effects of the test articles were examined, using two or more doses of each drug in 3-4 subjects in a double alternation schedule in which each unit dose (or vehicle) was used in two consecutive sessions before a change in unit dose.
Addictive potential of opioid compounds and opioid conjugates of the invention may be assessed through the use of squirrel monkey models as known in the art.
Under the double alternation schedule, each unit dose (or vehicle) was available for intravenous self-administration for two consecutive sessions before the unit dose was changed. In this way, it was possible to establish the function relating unit dose of intravenous drug to (i) number of injections per session, and/or (ii) the percentage of total responses that occur on the lever leading to self-administration (injection-lever responding, % ILR). Unit doses of drugs ranged from 0.01 to 3.2 mg/kg/injection.

[5] = codeine series, 5 mg/kg oral, Mean ± SD
[6] = read-out: EC50, mu opioid receptor
[7] = male, Sprague-Dawley, rat, plasma, hydroxycodone series, 1 mg/kg IV, Mean ± SD
[8] = male, Sprague-Dawley, rat, plasma, hydroxycodone series, 1 mg/kg IV, Mean ± SD, read-out: Cmax
[9] = male, Sprague-Dawley, rat, plasma, hydroxycodone series, 1 mg/kg IV, Mean ± SD, read-out: T1/2(z)
[10] = male, Sprague-Dawley, rat, plasma, po, 5 mg/kg
[11] = male, Sprague-Dawley, rat, plasma, hydroxycodone series, 5.0 mg/kg oral, Mean ± SD
[12] = maximal response at the highest tested concentration
[13] = CHO-K1 membranes, [3H]DAMGO 6 nM, read-out: Ki, Mu opioid receptor
[14] = male, Sprague-Dawley, rat, plasma, iv, 1 mg/kg

`COc1ccc2c3c1O[C@H]1[C@@H](O)C=C[C@H]4[C@@H](C2)N(C)CC[C@@]341` [Codeine, codeine, reference compound] showed an AUCall ([1]; codeine series, 1 mg/kg IV) of 11000 ± 1600 ng·min/mL, an AUCinf ([1]; codeine series, 1 mg/kg IV) of 11400 ± 2070 ng·min/mL and a CL ([1]; codeine series, 1 mg/kg IV) of 89.7 ± 15.3 mL/min/kg. The Cmax ([1]; codeine series, 1 mg/kg IV) was 469 ± 20.4 ng/mL, the MRTlast ([1]; codeine series, 1 mg/kg IV) was 40.2 ± 9.08 min and the Vss ([1]; codeine series, 1 mg/kg IV) was 4.14 ± 0.700 L/kg. For the same molecule, the AUCall [2, 5] was 328 ± 216 ng·min/mL, the Cmax [2, 5] was 6.24 ± 2.51 ng/mL and the MRTlast [2, 5] was 33.2 ± 12.9 min. The AUCinf ([2]; codeine series, 5 mg/kg oral, Mean ± SD, # n = 1, * n = 2) was 431^# min · ng/mL, the Tmax ([2]; codeine series, 5 mg/kg oral, median value) was 15.0 min and the F % ([2]; codeine series, oral bioavailability, 5 mg/kg oral vs 1 mg/kg IV) was 0.60%.
`COc1ccc2c3c1OC1C(O)CCC4(O)C(C2)N(C)CCC314` (stereo not drawn) [Hydroxycodone, α-6-hydroxycodone, reference compound] gave an EC50 (human mu opioid receptor [3]; [6]) of 3.16 µM.
Molecule `COCCOC1C=CC2C3Cc4ccc(O)c5c4C2(CCN3C)C1O5` (stereo not drawn) [α-6-mPEG1-O-morphine] has an EC50 (human mu opioid receptor [3]) of 0.085 µM, an Emax (human mu opioid receptor [3]) of 91% and a Ki (human mu opioid receptor [4]) of 0.0157 µM.
For `COCCOCCOC1CCC2(O)C3Cc4ccc(OC)c5c4C2(CCN3C)C1O5` (stereo not drawn) [α-6-mPEG2-O-hydroxycodone, α-6-mPEG2-O-oxycodone], the AUC [1, 7] was 200 ng·h/mL, the AUC(0-inf) [1, 7] was 203 ng·h/mL and the MRT last [1, 7] was 37 min. The clearance [1, 7] was 83.3 ± 10.8 mL/min/kg, the Cmax [1, 8] was 513 ± 48.8 ng/mL and the half-life [1, 9] was 44.6 ± 1.8 min. It also gave a Vd [1, 7] of 3.36 ± 0.298 L/kg, a bioavailability [2, 10] of 9.4% and an AUC [2, 11] of 98.5 ng·h/mL. It also gave an MRT last [2, 11] of 55.4 min, an AUC(0-inf) ([2]; male, Sprague-Dawley, rat, plasma, hydroxycodone series, 5.0 mg/kg oral, Mean ± SD, * n = 2) of 97.2 ng·h/mL and a half-life ([2]; male, Sprague-Dawley, rat, plasma, hydroxycodone series, 5.0 mg/kg oral, Mean ± SD, * n = 2, read-out: T1/2(z)) of 48.5 ± 12 min. The Cmax ([2]; male, Sprague-Dawley, rat, plasma, hydroxycodone series, 5.0 mg/kg oral, Mean ± SD, read-out: Cmax) was 99.4 ± 47.3 ng/mL, the Tmax ([2]; male, Sprague-Dawley, rat, plasma, hydroxycodone series, 5.0 mg/kg oral, median value, read-out: Tmax (converted)) was 15 min and the Emax (human mu opioid receptor [3]; [12]) was 101%. The EC50 (human mu opioid receptor [3]; [6]) was 5.01 µM and the Ki (human mu opioid receptor [4]; [13]) was 0.632 µM.
`COCCOCCOC1C=CC2C3Cc4ccc(O)c5c4C2(CCN3C)C1O5` (stereo not drawn) [α-6-mPEG2-O-morphine] gave an EC50 (human mu opioid receptor [3]) of 0.0933 µM, an Emax (human mu opioid receptor [3]) of 91% and a Ki (human mu opioid receptor [4]) of 0.022 µM.
For `COCCOCCOCCOC1C=CC2C3Cc4ccc(OC)c5c4C2(CCN3C)C1O5` (stereo not drawn) [α-6-mPEG3-O-codeine], the AUC [1, 14] was 288 ng·h/mL, the AUC(0-inf) [1, 14] was 290 ng·h/mL and the MRT last [1, 14] was 33.8 min. The clearance [1, 14] was 57.7 ± 4.89 mL/min/kg, the Cmax ([1]; male, Sprague-Dawley, rat, plasma, iv, 1 mg/kg, read-out: Cmax) was 732 ± 27.1 ng/mL and the half-life ([1]; male, Sprague-Dawley, rat, plasma, iv, 1 mg/kg, read-out: T1/2(2)) was 39.4 ± 1.49 min. For the same molecule, the Vd [1, 14] was 2.07 ± 0.127 L/kg, the AUC [2, 10] was 32 ng·h/mL and the AUC(0-inf) [2, 10] was 34.7 ng·h/mL. The MRT last [2, 10] was 71 min, the bioavailability [2, 10] was 2.39% and the Cmax ([2]; male, Sprague-Dawley, rat, plasma, po, 5 mg/kg, read-out: Cmax) was 25 ± 6.59 ng/mL. The half-life ([2]; male, Sprague-Dawley, rat, plasma, po, 5 mg/kg, read-out: T1/2(2)) was 125 ± 64.6 min, the Tmax ([2]; male, Sprague-Dawley, rat, plasma, po, 5 mg/kg, read-out: Tmax (converted)) was 15 min and the Emax (human mu opioid receptor [3]; [12]) was 91%. It also gave a Ki (human mu opioid receptor [4]; [13]) of 4.26 µM.
In the case of `COCCOCCOCCOC1CCC2(O)C3Cc4ccc(OC)c5c4C2(CCN3C)C1O5` (stereo not drawn) [α-6-mPEG3-O-hydroxycodone, α-6-mPEG3-O-oxycodone], the AUC [1, 7] is reported as 230 ng·h/mL, the AUC(0-inf) [1, 7] is reported as 233 ng·h/mL and the MRT last [1, 7] is reported as 32.5 min. It also gave a clearance [1, 7] of 71.7 ± 4.99 mL/min/kg, a Cmax [1, 8] of 746 ± 2.08 ng/mL and a half-life [1, 9] of 48.5 ± 7.83 min. The Vd [1, 7] was 2.62 ± 0.206 L/kg, the Emax (human mu opioid receptor [3]; [12]) was 108% and the EC50 (human mu opioid receptor [3]; [6]) was 2.83 µM. The “subjects showing addictive behavior” value (squirrel monkeys; 0.1 mg/kg/injection) was 25%, the “subjects showing addictive behavior” value (squirrel monkeys; 0.3 mg/kg/injection) was 50% and the “subjects showing addictive behavior” value (squirrel monkeys; 1 mg/kg/injection) was 100%. The Ki (human mu opioid receptor [4]; [13]) was 0.775 µM.
For `COCCOCCOCCOC1C=CC2C3Cc4ccc(O)c5c4C2(CCN3C)C1O5` (stereo not drawn) [α-6-mPEG3-O-morphine], the EC50 (human mu opioid receptor [3]) was 0.27 µM, the Emax (human mu opioid receptor [3]) was 100% and the “subjects showing addictive behavior” value (squirrel monkeys; 0.1 mg/kg/injection) was 33%. For the same molecule, the “subjects showing addictive behavior” value (squirrel monkeys; 0.3 mg/kg/injection) was “all animals” and the Ki (human mu opioid receptor [4]) was 0.0507 µM.
